# Measurements: patent US11267826B2, “Penicillin-binding protein inhibitors” (priority 2017, dated 2022)
# Columns and labels:
# S. aureus ATCC 29213 = test: Broth microdilution MIC assay, S. aureus; assay type: cell-based; conditions: Staphylococcus aureus, ATCC29213; broth microdilution, 16-20 hours at 37° C.; read-out: S. aureus 29213 MIC
# Experimental: (§1) To determine the ability of test compounds to potentiate the inhibition of the growth of bacterial strains, classic cell based broth microdilution MIC assays were employed. MIC assays are performed according to CLSI methods except where otherwise noted (CLSI, 2011 and CLSI, 2009). The reference strain S. aureus ATCC 29213 and the hyper-permeable E. coli 901C were used to determine the ability of the PBP compounds to inhibit bacterial growth. Briefly, cryo-preserved bacterial cultures of clinical strains are streaked for isolation on appropriate agar medium, in this case Mueller Hinton II agar. Following incubation to allow formation of colonies these plates are sealed with parafilm and stored refrigerated for up to two weeks. For preparation of assay inocula and to ensure low variability, at least 5 colonies are picked from the agar plates with an inoculating loop and aseptically transferred to a culture tube containing 3 mL of Mueller-Hinton Broth (supplemented with divalent cations to required levels based on Manufacturers' certification). The broth culture is grown for 3-5 hours at 37° C. with shaking at 200 rpm. Meanwhile, 2-fold serial dilutions of test compounds are conducted in a 96 well plate with a final volume of 75 μL per well at 2-fold the final desired concentration. After the dilution plates are set up the growing cultures are then diluted in a cuvette containing MH II broth and the optical density is measured at 600 nm. Inocula are diluted such that 75 μL of this culture in Mueller-Hinton Broth results in a starting bacterial concentration of 5×10^5 CFU/mL when added to the dilution plates. The plates are incubated 16-20 hours at 37° C. The MIC is read visually as the lowest concentration well with no bacterial growth.
# [1] = tested on: hyper-permeable E. coli 901C; test: Broth microdilution MIC assay, hyper-permeable E. coli; assay type: cell-based; conditions: Escherichia coli, read-out: E. coli 901C MIC
# Experimental: as §1
Compound,MIC (S. aureus ATCC 29213) [µg/mL],MIC [1] [µg/mL]
"Nc1nc(C(CC(=O)O)C(=O)N[C@H]2Cc3cccc(C(=O)O)c3OB2O)cs1 (mixture of isomers) [Example 99, (3R)-3-(2-(2-aminothiazol-4-yl)-3-carboxypropanamido)-2-hydroxy-3,4-dihydro-2H-benzo[e][1,2]oxaborinine-8-carboxylic Acid]",> 128,64 to 128
"Nc1nc(C(=NO)C(=O)NC2Cc3cccc(C(=O)O)c3OB2O)ns1 (stereo in doubt) [Example 20, (S,Z)-3-(2-(5-amino-1,2,4-thiadiazol-3-yl)-2-(hydroxyimino)acetamido)-2-hydroxy-3,4-dihydro-2H-benzo[e][1,2]oxaborinine-8-carboxylic Acid]",> 128,> 128
"Nc1ncc(C(=NO)C(=O)N[C@H]2Cc3cccc(C(=O)O)c3OB2O)s1 (stereo in doubt) [Example 95, (R,Z)-3-(2-(2-aminothiazol-5-yl)-2-(hydroxyimino)acetamido)-2-hydroxy-3,4-dihydro-2H-benzo[e][1,2]oxaborinine-8-carboxylic Acid]",< 64,> 128
"Nc1ncc(C(=NO)C(=O)N[C@H]2Cc3cccc(C(=O)O)c3OB2O)s1 (stereo in doubt) [Example 96, (R,E)-3-(2-(2-aminothiazol-5-yl)-2-(hydroxyimino)acetamido)-2-hydroxy-3,4-dihydro-2H-benzo[e][1,2]oxaborinine-8-carboxylic Acid]",64 to 128,> 128
"CO/N=C(\C(=O)N[C@H]1Cc2cccc(C(=O)O)c2OB1O)c1nsc(N)n1 [Example 2, (R,Z)-3-(2-(5-amino-1,2,4-thiadiazol-3-yl)-2-(methoxyimino)acetamido)-2-hydroxy-3,4-dihydro-2H-benzo[e][1,2]oxaborinine-8-carboxylic Acid]",> 128,< 64
"CO/N=C(/C(=O)N[C@H]1Cc2cccc(C(=O)O)c2OB1O)c1cccnc1 [Example 3, (R,E)-2-hydroxy-3-(2-(methoxyimino)-2-(pyridin-3-yl)acetamido)-3,4-dihydro-2H-benzo[e][1,2]oxaborinine-8-carboxylic Acid]",> 128,> 128
"CO/N=C(\C(=O)N[C@H]1Cc2cccc(C(=O)O)c2OB1O)c1cccnc1 [Example 4, (R,Z)-2-hydroxy-3-(2-(methoxyimino)-2-(pyridin-3-yl)acetamido)-3,4-dihydro-2H-benzo[e][1,2]oxaborinine-8-carboxylic Acid]",64 to 128,> 128
"CO/N=C(\C(=O)N[C@H]1Cc2cccc(C(=O)O)c2OB1O)c1ccc2c(c1)CNC2 [Example 5, (R,Z)-2-hydroxy-3-(2-(isoindolin-5-yl)-2-(methoxyimino)acetamido)-3,4-dihydro-2H-benzo[e][1,2]oxaborinine-8-carboxylic Acid]",> 128,> 128
"O=C(N[C@H]1Cc2cccc(C(=O)O)c2OB1O)/C(=N\O)c1ccc2c(c1)CNC2 [Example 8, (R,Z)-2-hydroxy-3-(2-(hydroxyimino)-2-(isoindolin-5-yl)acetamido)-3,4-dihydro-2H-benzo[e][1,2]oxaborinine-8-carboxylic Acid]",< 64,< 64
"Nc1nc(/C(=N/O)C(=O)N[C@@H]2Cc3cccc(C(=O)O)c3OB2O)cs1 [Example 9, (S,Z)-3-(2-(2-aminothiazol-4-yl)-2-(hydroxyimino)acetamido)-2-hydroxy3,4-dihydro-2H-benzo[e][1,2]oxaborinine-8-carboxylic Acid]",> 128,> 128
"NCCNc1nc(/C(=N/O)C(=O)N[C@H]2Cc3cccc(C(=O)O)c3OB2O)cs1 [Example 10, (R,Z)-3-(2-(2-((2-aminoethyl)amino)thiazol-4-yl)-2-(hydroxyimino)acetamido)-2-hydroxy-3,4-dihydro-2H-benzo[e][1,2]oxaborinine-8-carboxylic Acid]",64 to 128,> 128
"N=C(N)Nc1nc(/C(=N/O)C(=O)N[C@H]2Cc3cccc(C(=O)O)c3OB2O)cs1 [Example 11, (R,Z)-3-(2-(2-guanidinothiazol-4-yl)-2-(hydroxyimino)acetamido)-2-hydroxy-3,4-dihydro-2H-benzo[e][1,2]oxaborinine-8-carboxylic Acid]",< 64,> 128
"Nc1nc(/C(=N/OCCO)C(=O)N[C@H]2Cc3cccc(C(=O)O)c3OB2O)cs1 [Example 13, (R,Z)-3-(2-(2-aminothiazol-4-yl)-2-((2-hydroxyethoxy)imino)acetamido)-2-hydroxy-3,4-dihydro-2H-benzo[e][1,2]oxaborinine-8-carboxylic Acid]",64 to 128,> 128
"Nc1cc(/C(=N/O)C(=O)N[C@H]2Cc3cccc(C(=O)O)c3OB2O)ccn1 [Example 14, (R,Z)-3-(2-(2-aminopyridin-4-yl)-2-(hydroxyimino)acetamido)-2-hydroxy-3,4-dihydro-2H-benzo[e][1,2]oxaborinine-8-carboxylic Acid]",< 64,> 128
"Nc1cc(/C(=N\O)C(=O)N[C@H]2Cc3cccc(C(=O)O)c3OB2O)ccn1 [Example 15, (R,E)-3-(2-(2-aminopyridin-4-yl)-2-(hydroxyimino)acetamido)-2-hydroxy-3,4-dihydro-2H-benzo[e][1,2]oxaborinine-8-carboxylic Acid]",64 to 128,> 128
"Nc1cccc(/C(=N/O)C(=O)N[C@H]2Cc3cccc(C(=O)O)c3OB2O)n1 [Example 16, (R,Z)-3-(2-(6-aminopyridin-2-yl)-2-(hydroxyimino)acetamido)-2-hydroxy-3,4-dihydro-2H-benzo[e][1,2]oxaborinine-8-carboxylic Acid]",< 64,64 to 128
"Nc1nc(/C(=N/OCC(=O)O)C(=O)N[C@H]2Cc3cccc(C(=O)O)c3OB2O)cs1 [Example 18, (R,Z)-3-(2-(2-aminothiazol-4-yl)-2-((carboxymethoxy)imino)acetamido)-2-hydroxy-3,4-dihydro-2H-benzo[e][1,2]oxaborinine-8-carboxylic Acid]",> 128,< 64
"Nc1nc(/C(=N/O)C(=O)N[C@H]2Cc3cccc(C(=O)O)c3OB2O)ns1 [Example 19, (R,Z)-3-(2-(5-amino-1,2,4-thiadiazol-3-yl)-2-(hydroxyimino)acetamido)-2-hydroxy-3,4-dihydro-2H-benzo[e][1,2]oxaborinine-8-carboxylic Acid]",64 to 128,> 128
"C[N+]1(Cc2ccc3c(c2C(=O)[O-])OB(O)[C@@H](NC(=O)/C(=N\O)c2csc(N)n2)C3)CCCC1 [Example 26, (R,Z)-3-(2-(2-aminothiazol-4-yl)-2-(hydroxyimino)acetamido)-2-hydroxy-7-((1-methylpyrrolidin-1-ium-1-yl)methyl)-3,4-dihydro-2H-benzo[e][1,2]oxaborinine-8-carboxylate]",< 64,
"Nc1nc(/C(=N/O)C(=O)N[C@H]2Cc3ccc(CN4CCC(CO)CC4)c(C(=O)O)c3OB2O)cs1 [Example 29, (R,Z)-3-(2-(2-aminothiazol-4-yl)-2-(hydroxyimino)acetamido)-2-hydroxy-7-((4-(hydroxymethyl)piperidin-1-yl)methyl)-3,4-dihydro-2H-benzo[e][1,2]oxaborinine-8-carboxylic Acid]",> 128,
"C[N+]1(Cc2ccc3c(c2C(=O)[O-])OB(O)[C@@H](NC(=O)/C(=N\O)c2csc(N)n2)C3)CCC(CO)CC1 (stereo partly drawn) [Example 30, (R,Z)-3-(2-(2-aminothiazol-4-yl)-2-(hydroxyimino)acetamido)-2-hydroxy-7-((4-(hydroxymethyl)-1-methylpiperidin-1-ium-1-yl)methyl)-3,4-dihydro-2H-benzo[e][1,2]oxaborinine-8-carboxylate]",< 64,
"CN(CC(=O)O)Cc1ccc2c(c1C(=O)O)OB(O)[C@@H](NC(=O)/C(=N\O)c1csc(N)n1)C2 [Example 31, (R,Z)-3-(2-(2-aminothiazol-4-yl)-2-(hydroxyimino)acetamido)-7-(((carboxymethyl)(methyl)amino)methyl)-2-hydroxy-3,4-dihydro-2H-benzo[e][1,2]oxaborinine-8-carboxylic Acid]",> 128,
"C[N+]1(Cc2cc3c(c(C(=O)[O-])c2)OB(O)[C@@H](NC(=O)/C(=N\O)c2csc(N)n2)C3)CCCC1 [Example 34, (R,Z)-3-(2-(2-aminothiazol-4-yl)-2-(hydroxyimino)acetamido)-2-hydroxy-6-((1-methylpyrrolidin-1-ium-1-yl)methyl)-3,4-dihydro-2H-benzo[e][1,2]oxaborinine-8-carboxylate]",< 64,
"COC(=O)CCc1cc2c(c(C(=O)O)c1)OB(O)[C@@H](NC(=O)/C(=N\O)c1csc(N)n1)C2 [Example 36, (R,Z)-3-(2-(2-aminothiazol-4-yl)-2-(hydroxyimino)acetamido)-2-hydroxy-6-(3-methoxy-3-oxopropyl)-3,4-dihydro-2H-benzo[e][1,2]oxaborinine-8-carboxylic Acid]",< 64,
"Nc1nc(/C(=N/O)C(=O)N[C@H]2Cc3cc(C(=O)O)cc(C(=O)O)c3OB2O)cs1 [Example 38, (R,Z)-3-(2-(2-aminothiazol-4-yl)-2-(hydroxyimino)acetamido)-2-hydroxy-3,4-dihydro-2H-benzo[e][1,2]oxaborinine-6,8-dicarboxylic Acid]",> 128,
